Read-outs that look alike come from different tables or passages of the source. *1 amine or outer side, *2 acyl side, *3 side chain or, on linkers, in order; H or OH if unused. Where a SMILES comes first, the peptide text is derived from it. Bridges are numbered along the chain shown (N, C = ends). [ ]: non-standard residue; d: D form. The star is where a group is joined. X2 = O=C(CCOCC(COCCC(=O)NCCOCCOCCOCCOC[C@H]1OC[C@H](Nc2cncc(C(F)(F)F)n2)[C@@H](O)[C@H]1O)NCC(=O)*)NCCOCCOCCOCCOC[C@H]1OC[C@H](Nc2cncc(C(F)(F)F)n2)[C@@H](O)[C@H]1O; X1 = O=C([C@@H]1C[C@H](N[*:3])CN1[*:1])[*:2]
Legend:
IgG = assay: Affinity to IgG by surface plasmon resonance (SPR); assay type: binding; settings: SPR; read-out: IgG KD
Experimental: Immobilization levels ranging from 1000-1300 resonance units (RU) are obtained. The running buffer is 10 mM HEPES, pH 7.4, 400 mM NaCl, 0.005% P20, […].

[1] = biological target: T1, ASGPR receptor on the cell surface (HepG2 cells) (Homo sapiens, UniProt P07306); assay: Ternary complex formation assay (flow cytometry, HepG2); assay type: cell-based
T1 construct: host or cells: HepG2
T1 sequence (P07306 1-291): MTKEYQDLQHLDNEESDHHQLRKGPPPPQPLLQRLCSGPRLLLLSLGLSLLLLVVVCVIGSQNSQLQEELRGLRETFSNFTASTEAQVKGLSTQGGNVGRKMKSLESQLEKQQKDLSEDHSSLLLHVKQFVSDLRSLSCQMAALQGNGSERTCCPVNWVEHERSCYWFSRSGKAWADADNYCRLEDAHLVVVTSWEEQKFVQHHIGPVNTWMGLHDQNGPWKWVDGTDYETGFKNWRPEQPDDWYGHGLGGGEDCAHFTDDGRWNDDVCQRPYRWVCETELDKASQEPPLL
T1 sequence (P07307 1-311 partner): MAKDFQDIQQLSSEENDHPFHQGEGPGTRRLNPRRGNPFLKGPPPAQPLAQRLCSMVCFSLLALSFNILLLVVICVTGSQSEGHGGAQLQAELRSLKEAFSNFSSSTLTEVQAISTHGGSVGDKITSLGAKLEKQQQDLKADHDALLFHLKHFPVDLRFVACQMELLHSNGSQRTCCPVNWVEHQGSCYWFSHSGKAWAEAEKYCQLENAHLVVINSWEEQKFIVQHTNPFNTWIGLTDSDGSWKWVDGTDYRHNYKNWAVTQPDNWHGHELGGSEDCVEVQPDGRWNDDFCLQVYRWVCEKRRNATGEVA
How it was run: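 HepG2 cells (1×10^5/well) incubated 1 h at 4 °C with 100 nM AF488-labeled anti-human IgG plus serial IgG-based degrader, or 100 nM AF488 rabbit anti-DNP plus serial DNP-based degrader. After washing, cell-associated AF488 MFI read by flow cytometry; peak MFI marks optimal degrader concentration for ternary complex.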

HepG2 cells = assay: Cellular uptake assay of AF488-labeled antibody (HepG2); assay type: cell-based; settings: HepG2 cells
How it was run: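 HepG2 cells given 100 nM AF488-labeled human IgG or DNP antibody plus serial dilutions of matching degrader (0.1% DMSO final), 6 h at 37° C. Methanol-fixed, DAPI-stained and imaged by high-content analysis. Value is the fraction of AF488-positive cells over total DAPI-counted cells.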

ASGPR = biological target: T2, ASGPR (Homo sapiens, UniProt P07306); assay: Affinity to ASGPR by surface plasmon resonance (SPR)
T2 sequence (P07306 1-291): T1 sequence (P07306 1-291)

[2] = HepG2 cells, ternary complex formation, read-out: TCF EC50
[3] = 100 nM AF488-labeled antibody, 37° C. for 6 hours, class symbols, read-out: Uptake Assay EC50
[4] = TCF EC50, HepG2 cells, ternary complex formation

| EC50 [1, 2] | Compound | Kd (IgG) | EC50 [1] | EC50 (HepG2 cells; read-out: Uptake EC50) | Kd (ASGPR) | EC50 ([1]; read-out: Ternary Complex EC50) | EC50 (HepG2 cells; [3]) | EC50 [1, 4] |
| --- | --- | --- | --- | --- | --- | --- | --- | --- |
| – | CC(C)C[C@@H]1NC(=O)[C@H](Cc2c[nH]cn2)NC(=O)[C@H](Cc2c[nH]c3ccccc23)NC(=O)[C@H](C)NC(=O)[C@@H]2CSSC[C@H](NC(=O)[C@H](Cc3c[nH]c4ccccc34)NC(=O)[C@H](C(C)C)NC(=O)[C@H](CC(C)C)NC(=O)[C@H](CCC(=O)O)NC(=O)CNC1=O)C(=O)N[C@@H]([C@@H](C)O)C(=O)N1CCC[C@@H]1C(=O)N1C[C@@H](NC(=O)CCOCCOCCOCCOCCNC(=O)CCCc3cn(CCCCCC(=O)NC(COCCC(=O)NCCOCCOCCOCCOC[C@@]45CO[C@@H](O4)[C@H](NC(=O)C(F)(F)F)[C@@H](O)[C@H]5O)(COCCC(=O)NCCOCCOCCOCCOC[C@@]45CO[C@@H](O4)[C@H](NC(=O)C(F)(F)F)[C@@H](O)[C@H]5O)COCCC(=O)NCCOCCOCCOCCOC[C@@]45CO[C@@H](O4)[C@H](NC(=O)C(F)(F)F)[C@@H](O)[C@H]5O)nn3)C[C@H]1C(=O)N[C@@H](CC(=O)O)C(=O)N2 [Compound 95] | < 100 nM | < 100 nM | < 100 nM | < 100 nM | – | – | – |
| > 1000 nM | CC(C)C[C@@H]1NC(=O)[C@H](Cc2cnc[nH]2)NC(=O)[C@H](Cc2c[nH]c3ccccc23)NC(=O)[C@H](C)NC(=O)[C@@H]2CSSC[C@H](NC(=O)[C@H](Cc3c[nH]c4ccccc34)NC(=O)[C@H](C(C)C)NC(=O)[C@H](CC(C)C)NC(=O)[C@H](CCC(=O)O)NC(=O)CNC1=O)C(=O)N[C@@H]([C@@H](C)O)C(=O)N1CCC[C@@H]1C(=O)N1C[C@@H](NC(=O)C3CCC(C(=O)NC[C@H]4OC[C@H](Nc5cncc(C(F)(F)F)n5)[C@@H](O)[C@H]4O)CC3)C[C@H]1C(=O)N[C@@H](CC(=O)O)C(=O)N2 (some centres unmarked) [Compound 69] | < 100 nM | – | > 1000 nM | 100 to 500 nM | – | – | – |
| – | CC(C)C[C@@H]1NC(=O)[C@H](Cc2cnc[nH]2)NC(=O)[C@H](Cc2c[nH]c3ccccc23)NC(=O)[C@H](C)NC(=O)[C@@H]2CSSC[C@H](NC(=O)[C@H](Cc3c[nH]c4ccccc34)NC(=O)[C@H](C(C)C)NC(=O)[C@H](CC(C)C)NC(=O)[C@H](CCC(=O)O)NC(=O)CNC1=O)C(=O)N[C@@H]([C@@H](C)O)C(=O)N1CCC[C@@H]1C(=O)N1C[C@@H](NC(=O)COCCOCC(=O)NC[C@H]3OC[C@H](Nc4cncc(C(F)(F)F)n4)[C@@H](O)[C@H]3O)C[C@H]1C(=O)N[C@@H](CC(=O)O)C(=O)N2 [Compound 42] | < 100 nM | < 100 nM | < 100 nM | < 100 nM | < 100 nM | < 100 nM | – |
| < 100 nM | CC(C)C[C@@H]1NC(=O)[C@H](Cc2cnc[nH]2)NC(=O)[C@H](Cc2c[nH]c3ccccc23)NC(=O)[C@H](C)NC(=O)[C@@H]2CSSC[C@H](NC(=O)[C@H](Cc3c[nH]c4ccccc34)NC(=O)[C@H](C(C)C)NC(=O)[C@H](CC(C)C)NC(=O)[C@H](CCC(=O)O)NC(=O)CNC1=O)C(=O)N[C@@H]([C@@H](C)O)C(=O)N1CCC[C@@H]1C(=O)N1C[C@@H](NC(=O)COc3ccc(CC(=O)NC[C@H]4OC[C@H](Nc5cncc(C(F)(F)F)n5)[C@@H](O)[C@H]4O)cc3)C[C@H]1C(=O)N[C@@H](CC(=O)O)C(=O)N2 [Compound 61] | < 100 nM | – | < 100 nM | < 100 nM | – | – | – |
| – | CC(C)C[C@@H]1NC(=O)[C@H](Cc2c[nH]cn2)NC(=O)[C@H](Cc2c[nH]c3ccccc23)NC(=O)[C@H](C)NC(=O)[C@@H]2CSSC[C@H](NC(=O)[C@H](Cc3c[nH]c4ccccc34)NC(=O)[C@H](C(C)C)NC(=O)[C@H](CC(C)C)NC(=O)[C@H](CCC(=O)N(C)C)NC(=O)CNC1=O)C(=O)N[C@@H]([C@@H](C)O)C(=O)N1CCC[C@@H]1C(=O)N1C[C@@H](NC(=O)CNC(COCCC(=O)NCCOCCOCCOCCOC[C@H]3OC[C@H](Nc4cncc(C(F)(F)F)n4)[C@@H](O)[C@H]3O)COCCC(=O)NCCOCCOCCOCCOC[C@H]3OC[C@H](Nc4cncc(C(F)(F)F)n4)[C@@H](O)[C@H]3O)C[C@H]1C(=O)N[C@@H](CC(N)=O)C(=O)N2 [Compound 78] (cyclo(AWHLGE(NMe2)LVWCT[dP][X1](X2)NC); disulfide 10-15) | < 100 nM | – | < 100 nM | < 100 nM | – | – | < 100 nM |
| – | CC(C)C[C@@H]1NC(=O)[C@H](C)NC(=O)CNC(=O)[C@H](CC(C)C)NC(=O)[C@H](Cc2c[nH]cn2)NC(=O)[C@H](Cc2c[nH]c3ccccc23)NC(=O)[C@H](C)NC(=O)[C@@H]2CSSC[C@H](NC(=O)[C@H](Cc3c[nH]c4ccccc34)NC(=O)[C@H](C(C)C)NC1=O)C(=O)N[C@@H]([C@@H](C)O)C(=O)N1CCC[C@@H]1C(=O)N1C[C@@H](NC(=O)CNC(COCCC(=O)NCCOCCOCCOCCOC[C@H]3OC[C@H](Nc4cncc(C(F)(F)F)n4)[C@@H](O)[C@H]3O)COCCC(=O)NCCOCCOCCOCCOC[C@H]3OC[C@H](Nc4cncc(C(F)(F)F)n4)[C@@H](O)[C@H]3O)C[C@H]1C(=O)N[C@@H](CC(N)=O)C(=O)N2 [Compound 79] (cyclo(ALVWCT[dP][X1](X2)NCAWHLG); disulfide 5-10) | < 100 nM | – | < 100 nM | < 100 nM | – | – | < 100 nM |
| > 1000 nM | CC(C)C[C@@H]1NC(=O)[C@H](Cc2cnc[nH]2)NC(=O)[C@H](Cc2c[nH]c3ccccc23)NC(=O)[C@H](C)NC(=O)[C@@H]2CSSC[C@H](NC(=O)[C@H](Cc3c[nH]c4ccccc34)NC(=O)[C@H](C(C)C)NC(=O)[C@H](CC(C)C)NC(=O)[C@H](CCC(=O)O)NC(=O)CNC1=O)C(=O)N[C@@H]([C@@H](C)O)C(=O)N1CCC[C@@H]1C(=O)N1C[C@@H](NC(=O)c3ccc(C(=O)NC[C@H]4OC[C@H](Nc5cncc(C(F)(F)F)n5)[C@@H](O)[C@H]4O)cc3)C[C@H]1C(=O)N[C@@H](CC(=O)O)C(=O)N2 [Compound 67] | < 100 nM | – | > 1000 nM | < 100 nM | – | – | – |
| – | CC(C)C[C@@H]1NC(=O)[C@H](C)NC(=O)CNC(=O)[C@H](CC(C)C)NC(=O)[C@H](Cc2cnc[nH]2)NC(=O)[C@H](Cc2c[nH]c3ccccc23)NC(=O)[C@H](C)NC(=O)[C@@H]2CSSC[C@H](NC(=O)[C@H](Cc3c[nH]c4ccccc34)NC(=O)[C@H](C(C)C)NC1=O)C(=O)N[C@@H]([C@@H](C)O)C(=O)N1CCC[C@@H]1C(=O)N1C[C@@H](NC(=O)CNC(COCCC(=O)NCCOCCOCCOCCOC[C@H]3OC[C@H](Nc4cncc(C(F)(F)F)n4)[C@@H](O)[C@H]3O)COCCC(=O)NCCOCCOCCOCCOC[C@H]3OC[C@H](Nc4cncc(C(F)(F)F)n4)[C@@H](O)[C@H]3O)C[C@H]1C(=O)N[C@@H](C)C(=O)N2 [Compound 76] (cyclo(ACAWHLGALVWCT[dP][X1](X2)); disulfide 2-12) | < 100 nM | – | < 100 nM | < 100 nM | – | – | < 100 nM |
| < 100 nM | CC(C)C[C@@H]1NC(=O)[C@H](Cc2cnc[nH]2)NC(=O)[C@H](Cc2c[nH]c3ccccc23)NC(=O)[C@H](C)NC(=O)[C@@H]2CSSC[C@H](NC(=O)[C@H](Cc3c[nH]c4ccccc34)NC(=O)[C@H](C(C)C)NC(=O)[C@H](CC(C)C)NC(=O)[C@H](CCC(=O)O)NC(=O)CNC1=O)C(=O)N[C@@H]([C@@H](C)O)C(=O)N1CCC[C@@H]1C(=O)N1C[C@@H](NC(=O)CC(=O)NC[C@H]3OC[C@H](Nc4cncc(C(F)(F)F)n4)[C@@H](O)[C@H]3O)C[C@H]1C(=O)N[C@@H](CC(=O)O)C(=O)N2 [Compound 62] | < 100 nM | – | < 100 nM | < 100 nM | – | – | – |
| – | CC(C)C[C@@H]1NC(=O)[C@H](Cc2c[nH]cn2)NC(=O)[C@H](Cc2c[nH]c3ccccc23)NC(=O)[C@H](C)NC(=O)[C@@H]2CSSC[C@H](NC(=O)[C@H](Cc3c[nH]c4ccccc34)NC(=O)[C@H](C(C)C)NC(=O)[C@H](CC(C)C)NC(=O)[C@H](CCC(=O)O)NC(=O)CNC1=O)C(=O)N[C@@H]([C@@H](C)O)C(=O)N1CCC[C@@H]1C(=O)N1C[C@@H](NC(=O)CCOCCOCCOCCOCCNC(=O)CCCc3cn(CCCCCC(=O)NC(COCCC(=O)NCCOCCOCCOCCOC[C@H]4OC[C@H](Nc5cncc(C(F)(F)F)n5)[C@@H](O)[C@H]4O)COCCC(=O)NCCOCCOCCOCCOC[C@H]4OC[C@H](Nc5cncc(C(F)(F)F)n5)[C@@H](O)[C@H]4O)nn3)C[C@H]1C(=O)N[C@@H](CC(=O)O)C(=O)N2 [Compound 4] | < 100 nM | < 100 nM | < 100 nM | < 100 nM | < 100 nM | < 100 nM | – |

Source: patent US12091402B2 (Avilar Therapeutics, Inc., priority 2021, dated 2024)
